SMILES strings stand for the structures. Entries after “also recorded” stand apart in the source; their conditions may differ.

Common to all, as to assay type: cell-based
Experiment [1] addresses T1, BCL-XL protein (Homo sapiens, UniProt Q07817).
T1 construct: endogenous in cells; host or cells: Molt-4 (human acute lymphocytic leukemia cells)
The experiment can be described thus: Western blot of BCL-XL protein in Molt-4 cells. The note with it: 100 nM, 8 h. As for the experimental part:
The BCL-XL antibody used in the experiment was purchased from Abcam Company, and the Tubulin antibody was purchased from Proteintech Company.
Molt-4 cells in logarithmic growth phase seeded at a density of 3×10^6 cells/well in a 6-well plate were subjected to treatment with the compounds of the present disclosure, and DMSO was used as the vehicle control group. After […] of treatment, the cells were harvested and washed once in PBS. Cells were placed on ice and treated with IP protein lysis buffer containing PMSF protease inhibitors. After centrifugation at 4° C. (10 k rpm, 5 min), the supernatant was collected and mixed with 4×LDS protein loading buffer at a volume ratio of 3:1. The mixture of protein supernatant with loading buffer were further added with 5% β-mercaptoethanol. After incubation in a metal bath at 95° C. for 10 minutes, the protein samples was stored at −80° C. or cooled directly on ice for protein electrophoresis using 10% homemade polyacrylamide gel as separation gel. Electrophoresis tank and other related components were purchased from Bio-rad company. The electrophoresis conditions were voltage 80 V for 45 minutes, then switch to voltage 120V for further electrophoresis for 1 hour. Then protein in gel was transferred onto PVDF membrane at an isocurrent of 300 mA in an icy water bath for one hour. Afterwards, the membrane was blocked with 5% skim milk for 1 hour at room temperature. Subsequently the membrane was incubated with primary antibody at 4° C. overnight or at room temperature for 2 h, then washed with 1×TBST buffer (sodium chloride, 150 mM, Tris, 10 mM, Tween 20, 0.1%; PH 7.4) for three times, and then added with secondary antibody and incubated at room temperature for 45 min, washed with 1×TBST buffer (sodium chloride, 150 mM, Tris, 10 mM, Tween 20, 0.1%; PH 7.4) three times, and subjected to color development. The antibody dilution ratio was determined according to the antibody instructions.
Molt-4 cells were seeded into a 6-well plate at a density of 3×10^6 cells per well. The next day, the cells were treated with the compounds of the present disclosure at a concentration of 100 nM, and the control groups were treated with DMSO and DT2216, respectively. Protein were extracted after 8 hours treatment, and BCL-XL protein expression was assessed by the western blot.

Experiment [2] relates to Molt-4 cells. In words: Thiazolyl blue cell proliferation assay in Molt-4 cells. Conditions: Homo sapiens, Molt-4 acute lymphocytic leukemia cells, 72 hours, read-out: IC50 (nM) for inhibiting the proliferation of Molt-4 cells. Put shortly:
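BCL-XL-dependent Molt-4 cells at 2×10^4/well in serum-containing RPMI 1640 were exposed to compound concentration gradients for 72 h. Thiazolyl blue (MTT) was added for 3 h at 37° C, solubilised in SDS/isopropanol/HCl, and read at 490 nm. IC50 comes from growth-inhibition curves, triplicate, repeated ≥3 times.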

Experiment [3] has as its system Hedgehog (Hh) signaling pathway. The experiment can be described thus: Dual-luciferase reporter assay of Hedgehog activity in Light II cells. Conditions: SAG stimulation, 36 h, dual-luciferase assay reporter kit, read-out: IC50 (nM) in Light II cells (inhibiting Hedgehog activity). As for the experimental part:
Determination of the IC50 Values of Compounds Inhibiting Hedgehog Activity—Dual-Luciferase Reporter Assay:
Light II cells were NIH3T3 cell lines that stably express the Gli-luciferase and TK-renilla reporters. They were cultured with DMEM medium containing 10% (v/v) fetal bovine serum (FBS), 0.4 mg/ml G418, 0.15 mg/ml bleomycin (Zeocin), and penicillin/streptomycin at 37° C. in an incubator with 5% CO2. Light II cells in the logarithmic growth phase were seeded at a density of 2.5×10^4 cells/well in a 96-well plate. After 24h incubation, the cells were subjected to treatment with SAG with or without different concentrations of the compounds of the present disclosure for 36 h. After that, the Hedgehog activity was measured using the dual fluorescence reporter kit according to its instructions. The experiment had 3 replicates per group and was repeated at least three times.

The subject of experiment [4] is MV4;11 cells. The experiment can be described thus: Thiazolyl blue cell proliferation assay in MV4;11 cells. Conditions: Homo sapiens, MV4;11 myeloid monocytic leukemia cells, 48 hours, read-out: IC50 (nM) for inhibiting the proliferation of MV4;11 cells. Put shortly: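 MV4;11 cells were seeded at 2×10^4 cells/well in serum-containing IMDM and treated with compound dilution series for 48 h. Viability was read by MTT at 490 nm after SDS/isopropanol/HCl solubilisation. IC50 values came from growth-inhibition curves, with 3 replicates and at least three repeats.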

In experiment [5] the test system is RS4;11 cells. In words: Thiazolyl blue cell proliferation assay in RS4;11 cells. Conditions: Homo sapiens, RS4;11 acute lymphoblastic leukemia cells, 48 hours, read-out: IC50 (nM) for inhibiting the proliferation of RS4;11 cells. Summed up: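 RS4;11 cells, 3×10^4 cells/well in serum-containing RPMI-1640, treated 48 h with 7 concentrations (top 1000 nM or 100 nM, 10-fold serial dilutions). MTT added for 3 h at 37 °C, solubilised 4-6 h with SDS/isopropanol/HCl, absorbance read at 490 nm. IC50 from growth-inhibition curves; triplicates, at least three repeats.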

T1 sequence (Q07817 whole entry): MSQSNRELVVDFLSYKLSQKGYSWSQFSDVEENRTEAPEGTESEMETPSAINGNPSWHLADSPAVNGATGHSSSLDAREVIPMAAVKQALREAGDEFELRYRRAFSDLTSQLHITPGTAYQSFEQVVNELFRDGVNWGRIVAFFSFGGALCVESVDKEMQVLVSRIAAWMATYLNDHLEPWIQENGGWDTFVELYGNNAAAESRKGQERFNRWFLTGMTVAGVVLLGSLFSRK

Regarding `CC1(C)CCC(CN2CCN(c3ccc(C(=O)NS(=O)(=O)c4ccc(NC[C@H]5CC[C@H](N6CCN(Cc7cc(Br)c8c(c7)C(=O)N(C7CCC(=O)NC7=O)C8)CC6)CC5)c([N+](=O)[O-])c4)c(Oc4cnc5[nH]ccc5c4)c3)CC2)=C(c2ccc(Cl)cc2)C1` (relative stereo) [BCL-03146, 2-((1H-pyrrolo[2,3-b]pyridin-5-yl)oxy)-N-((4-((((trans)-4-(4-((7-bromo-2-(2,6-dioxopiperidin-3-yl)-3-oxoisoindolin-5-yl)methyl)piperazin-1-yl)cyclohexyl)methyl)amino)-3-nitrophenyl)sulfonyl)-4-(4-((4′-chloro-5,5-dimethyl-3,4,5,6-tetrahydro-[1,1′-biphenyl]-2-yl)methyl)piperazin-1-yl)benzamide], the “BCL-XL protein expression / degradation (western blot)” value in experiment [1] was “significantly reduce the expression of BCL-XL protein; also recorded: significantly degraded BCL-XL protein”. Besides, the IC50 was under 10 nM in experiment [2], under 10 nM in experiment [3], under 20 nM in experiment [4] and under 20 nM in experiment [5].

As for `CC1(C)CCC(CN2CCN(c3ccc(C(=O)NS(=O)(=O)c4ccc(NC[C@H]5CC[C@@H](N6CCN(Cc7ccc8c(c7)CN(C7CCC(=O)NC7=O)C8=O)CC6)CC5)c([N+](=O)[O-])c4)c(Oc4cnc5[nH]ccc5c4)c3)CC2)=C(c2ccc(Cl)cc2)C1` (relative stereo) [BCL-03148, 2-((1H-pyrrolo[2,3-b]pyridin-5-yl)oxy)-4-(4-((4′-chloro-5,5-dimethyl-3,4,5,6-tetrahydro-[1,1′-biphenyl]-2-yl)methyl)piperazin-1-yl)-N-((4-((((cis)-4-(4-((2-(2,6-dioxopiperidin-3-yl)-1-oxoisoindolin-5-yl)methyl)piperazin-1-yl)cyclohexyl)methyl)amino)-3-nitrophenyl)sulfonyl)benzamide], the “BCL-XL protein expression / degradation (western blot)” value in experiment [1] is listed as “significantly reduce the expression of BCL-XL protein; also recorded: significantly degraded BCL-XL protein”. In addition, the IC50 was under 10 nM in experiment [2], under 10 nM in experiment [3], under 20 nM in experiment [4] and under 20 nM in experiment [5].

Turning to `CC1(C)CCC(CN2CCN(c3ccc(C(=O)NS(=O)(=O)c4ccc(NC[C@H]5CC[C@H](N6CCN(Cc7ccc8c(c7)CN(C7CCC(=O)NC7=O)C8=O)CC6)CC5)c([N+](=O)[O-])c4)c(Oc4cnc5[nH]ccc5c4)c3)CC2)=C(c2ccc(Cl)cc2)C1` (relative stereo) [BCL-03147, 2-((1H-pyrrolo[2,3-b]pyridin-5-yl)oxy)-4-(4-((4′-chloro-5,5-dimethyl-3,4,5,6-tetrahydro-[1,1′-biphenyl]-2-yl)methyl)piperazin-1-yl)-N-((4-((((trans)-4-(4-((2-(2,6-dioxopiperidin-3-yl)-1-oxoisoindolin-5-yl)methyl)piperazin-1-yl)cyclohexyl)methyl)amino)-3-nitrophenyl)sulfonyl)benzamide], the “BCL-XL protein expression / degradation (western blot)” value in experiment [1] was “significantly reduce the expression of BCL-XL protein; also recorded: significantly degraded BCL-XL protein”. The IC50 in experiment [2] was under 10 nM; in experiment [3], under 10 nM; in experiment [4] it was under 20 nM; in experiment [5] it was under 20 nM.

Regarding `CC1(C)CCC(CN2CCN(c3ccc(C(=O)NS(=O)(=O)c4ccc(NC[C@H]5CC[C@@H](N6CCN(Cc7cc(Br)c8c(c7)C(=O)N(C7CCC(=O)NC7=O)C8)CC6)CC5)c([N+](=O)[O-])c4)c(Oc4cnc5[nH]ccc5c4)c3)CC2)=C(c2ccc(Cl)cc2)C1` (relative stereo) [BCL-03149, 2-((1H-pyrrolo[2,3-b]pyridin-5-yl)oxy)-N-((4-((((cis)-4-(4-((7-bromo-2-(2,6-dioxopiperidin-3-yl)-3-oxoisoindolin-5-yl)methyl)piperazin-1-yl)cyclohexyl)methyl)amino)-3-nitrophenyl)sulfonyl)-4-(4-((4′-chloro-5,5-dimethyl-3,4,5,6-tetrahydro-[1,1′-biphenyl]-2-yl)methyl)piperazin-1-yl)benzamide], in experiment [1], the “BCL-XL protein expression / degradation (western blot)” value is listed as “significantly reduce the expression of BCL-XL protein; also recorded: significantly degraded BCL-XL protein”. Besides, the IC50 is under 10 nM in experiment [2], under 10 nM in experiment [3], under 20 nM in experiment [4] and under 20 nM in experiment [5].

For the origin of these results see patent US20250154146A1, “PROTEIN DEGRADERS DEVELOPED ON BASIS OF BCL-2 FAMILY PROTEIN LIGAND COMPOUNDS AND USE THEREOF” (ShanghaiTech University, priority 2022, published 2025).
